Experimental data taken from the supplement of paper PMC11451515.

Tested on: SEM cells
Assay: cell viability relative to DMSO control; higher = less cytotoxic
Details: 48 h
Outline: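 Library compounds in DMSO were pin-dosed into 1536-well plates (5 μl) holding NOMO1 or SEM (500 cells/well) or P12-Ichikawa (1000 cells/well) leukemia cells, across an 11-point threefold series of 47 μM to 0.79 nM. Each cell line had been adapted for at least four passages in each medium. CellTiter-Glo One luminescence was read after 48 h at 37°C. Viability is the per-plate percentage relative to DMSO wells, with cell-free wells as background.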

[1] = HPLM + 10% dialyzed FBS, 0.000781 µM
[2] = HPLM + 10% dialyzed FBS, 0.00234 µM
[3] = HPLM + 10% dialyzed FBS, 0.00702 µM
[4] = HPLM + 10% dialyzed FBS, 0.0211 µM
[5] = HPLM + 10% dialyzed FBS, 0.0632 µM
[6] = HPLM + 10% dialyzed FBS, 0.19 µM
[7] = HPLM + 10% dialyzed FBS, 0.569 µM
[8] = HPLM + 10% dialyzed FBS, 1.71 µM
[9] = HPLM + 10% dialyzed FBS, 5.12 µM
[10] = HPLM + 10% dialyzed FBS, 15.4 µM
[11] = HPLM + 10% dialyzed FBS, 46.1 µM
[12] = RPMI 5 mM glucose + 10% FBS, 0.000781 µM
[13] = RPMI 5 mM glucose + 10% FBS, 0.00234 µM
[14] = RPMI 5 mM glucose + 10% FBS, 0.00702 µM
[15] = RPMI 5 mM glucose + 10% FBS, 0.0211 µM
[16] = RPMI 5 mM glucose + 10% FBS, 0.0632 µM
[17] = RPMI 5 mM glucose + 10% FBS, 0.19 µM
[18] = RPMI 5 mM glucose + 10% FBS, 0.569 µM
[19] = RPMI 5 mM glucose + 10% FBS, 1.71 µM
[20] = RPMI 5 mM glucose + 10% FBS, 5.12 µM
[21] = RPMI 5 mM glucose + 10% FBS, 15.4 µM
[22] = RPMI 5 mM glucose + 10% FBS, 46.1 µM
[23] = RPMI 5 mM glucose + 10% dialyzed FBS, 0.000781 µM
[24] = RPMI 5 mM glucose + 10% dialyzed FBS, 0.00234 µM
[25] = RPMI 5 mM glucose + 10% dialyzed FBS, 0.00702 µM
[26] = RPMI 5 mM glucose + 10% dialyzed FBS, 0.0211 µM
[27] = RPMI 5 mM glucose + 10% dialyzed FBS, 0.0632 µM
[28] = RPMI 5 mM glucose + 10% dialyzed FBS, 0.19 µM
[29] = RPMI 5 mM glucose + 10% dialyzed FBS, 0.569 µM
[30] = RPMI 5 mM glucose + 10% dialyzed FBS, 1.71 µM
[31] = RPMI 5 mM glucose + 10% dialyzed FBS, 5.12 µM
[32] = RPMI 5 mM glucose + 10% dialyzed FBS, 15.4 µM
[33] = RPMI 5 mM glucose + 10% dialyzed FBS, 46.1 µM

| SMILES | cell viability [1] | cell viability [2] | cell viability [3] | cell viability [4] | cell viability [5] | cell viability [6] | cell viability [7] | cell viability [8] | cell viability [9] | cell viability [10] | cell viability [11] | cell viability [12] | cell viability [13] | cell viability [14] | cell viability [15] | cell viability [16] | cell viability [17] | cell viability [18] | cell viability [19] | cell viability [20] | cell viability [21] | cell viability [22] | cell viability [23] | cell viability [24] | cell viability [25] | cell viability [26] | cell viability [27] | cell viability [28] | cell viability [29] | cell viability [30] | cell viability [31] | cell viability [32] | cell viability [33] |
| --- | --- | --- | --- | --- | --- | --- | --- | --- | --- | --- | --- | --- | --- | --- | --- | --- | --- | --- | --- | --- | --- | --- | --- | --- | --- | --- | --- | --- | --- | --- | --- | --- | --- |
| Cc1ccc(-c2ncn(-c3ccc(Nc4nccc(-c5cccc(N6CCOCC6)c5)n4)cc3)n2)cn1 | 75.3% | 93% | 103% | 94.5% | 70.9% | 65.3% | 4.95% | 3.93% | 3.48% | 3.55% | 6.89% | 90.3% | 98.9% | 101% | 104% | 75.1% | 32.3% | 5.46% | 4.61% | 3.18% | 3.66% | 5.27% | 81.6% | 95.5% | 90.7% | 94.4% | 66.9% | 48% | 5.8% | 4.65% | 4.48% | 3.85% | 5.94% |
| O=C(CCc1ccc(O)cc1)c1c(O)cc(O)cc1O[C@@H]1O[C@H](CO)[C@@H](O)[C@H](O)[C@H]1O | 78.3% | 99.9% | 107% | 107% | 100% | 85.8% | 88.2% | 102% | 104% | 93.1% | 81.9% | 80.9% | 93.9% | 98.4% | 97.6% | 79.6% | 94.6% | 89.4% | 78.6% | 93.7% | 92.2% | 83.4% | 61.4% | 102% | 89.6% | 104% | 86.9% | 89.1% | 90.5% | 86.7% | 89.5% | 77.4% | 73.1% |
